Earlier results in patent publication US20030114415A1, “Compositions and methods for treating and preventing memory impairment using citicoline” (priority 2001, published 2003).
Like-named read-outs stand apart in the source and are kept apart here.

Experiments:
[1] = rat; 500 mg/kg/day citicoline
[2] = test system: stroke and head trauma patients
[3] = human; 1000 mg citicoline per day

plasma choline concentration [1]: 1.5 ng/mL
absorption when administered orally (oral): absorbed almost completely
plasma choline concentration [3]: 1.5 ng/mL
SMILES: C[N+](C)(C)CCOP(=O)(O)OP(=O)([O-])OC[C@H]1O[C@@H](n2ccc(N)nc2=O)[C@H](O)[C@@H]1O [citicoline, cytidine-5′-diphosphocholine]
bioavailability when administered orally (oral compared with intravenous): approximately the same as when administered intravenously
negative side effects, including dizziness ([2]; patients, 500 mg per day): minimizing any negative side effects
tolerability ([2]; stroke and head trauma patients, 250 mg/day to 1000 mg/day for several weeks): tolerated citicoline well
